Experimental data as given in US5314904A (priority 1991, dated 1994).
Converted amounts (≈) assume the structure as drawn. Where two headings read alike, the source gives them in different places.

Key:
[1] = system: Mobiluncus spp.; test: MIC in vitro, Mobiluncus spp. (NCCLS M11-T2, agar Wilken-Chalgren); assay type: cell-based; settings: for MIC: read-out: MIC Range of Concentration Value
From the text: (§1) Forty strains of Bacteroides bivius-disiens, 23 strains of Gardnerella vaginalis, 31 strains of the species Lactobacillus and 13 strains of Mobiluncus, 35 strains (from Iowa) and 25 strains (from Manitoba) of Neisseria gonorrhoeae, 25 strains of Haemophilus ducreyi and 6 strains of Chlamydia trachomatis have been analyzed.
(§2) Forty strains of Bacteroides bivius-disiens, 23 strains of Gardnerella vaginalis, 31 strains of Lactobacillus spp., 13 strains of Mobiluncus spp., 6 strains of Chlamydia trachomatis, 60 strains of Neisseria gonorrhoeae and 25 strains of Haemophilus ducreyi were obtained by culture collections supplied from: […]

[2] = cited from earlier work
[3] = system: Bacteroides bivius-disiens; test: MIC in vitro, Bacteroides bivius-disiens (NCCLS M11-T2, agar Wilken-Chalgren); assay type: cell-based; settings: 40 strains; for MIC: read-out: MIC Range of Concentration Value
From the text: as §1, §2

[4] = system: Gardnerella vaginalis; test: MIC in vitro, Gardnerella vaginalis (NCCLS M11-T2, agar Wilken-Chalgren); assay type: cell-based; settings: for MIC: read-out: MIC Range of Concentration Value
From the text: as §1, §2

[5] = system: Lactobacillus spp.; test: MIC in vitro, Lactobacillus spp. (NCCLS M11-T2, agar Wilken-Chalgren); assay type: cell-based; settings: for MIC: read-out: MIC Range of Concentration Value
From the text: as §1, §2

[6] = system: Mycoplasma hominis; test: MIC in vitro, Mycoplasma hominis (Hoban et al. method); assay type: cell-based; settings: Metamycoplasma hominis
From the text: (§3) The determination of the MIC with respect to Neisseria gonorrhoeae has been carried out according to the NCCLS M7-A2 method, while the determination of th MIC with respect to Chlamydia trachomatis, Mycoplasma hominis, Ureaplasma urealyticum and Haemophilus ducrey has been carried out according to Hoban D. et al. "In vitro activity of lomefloxacin against Chlamydia trachomatis, Neisseria gonorrhoeae, Haemophilus ducreyi, Mycoplasma hominis and Ureaplasma urealyticum." Diagn. Microbiol. Infect. Dis., 12, 83S-86S (1989).

[7] = system: Haemophilus ducreyi; test: MIC in vitro, Haemophilus ducreyi (Hoban et al. method); assay type: cell-based
From the text: (§4) Forty strains of Bacteroides bivius-disiens, 23 strains of Gardnerella vaginalis, 31 strains of the species Lactobacillus and 13 strains of Mobiluncus, 35 strains (from Iowa) and 25 strains (from Manitoba) of Neisseria gonorrhoeae, 25 strains of Haemophilus ducreyi and 6 strains of Chlamydia trachomatis have been analyzed. The determination of the minimum inhibitory concentration on the strains of the four types of anaerobic bacteria has been carried out according to NCCLS M11-T2 method (National Committee for Clinical Laboratory Standards. Methods for antimicrobial testing of anaerobic bacteria--second edition: Tentative Standard. NCCLS M11-T2, Villanova, Pa. NCCLS; 1989) on agar Wilken-Chalgren (Difco Laboratories, Detroit, Mich.) to which blood has been added.
The strains of Haemophilus ducreyi have been grown on chocolate agar for 24 hours at 35° C. in an atmosphere of carbon dioxide. After each material has been isolated, it is applied on chocolate agar containing appropriate dilution of antibiotic (Hoban D. et al. "In vitro activity of lomefloxacin against Chlamydia trachomatis, Neisseria gonorrhoeae, Haemophilus ducreyi, Mycoplasma hominis and Ureaplasma urealyticum". Diagn. Microbiol. Infect. Dis. 12, 83S-86S, 1989). The plates are incubated in an atmosphere containing carbon dioxide with increasing moisture at 35° C. for 48 hours.
as §2

[8] = system: Ureaplasma urealyticum; test: MIC in vitro, Ureaplasma urealyticum (Hoban et al. method); assay type: cell-based
From the text: as §3

[9] = system: Neisseria gonorrhoeae; test: MIC in vitro, Neisseria gonorrhoeae (NCCLS M7-A2); assay type: cell-based
From the text: as §1
(§5) Forty strains of Bacteroides bivius-disiens, 23 strains of Gardnerella vaginalis, 31 strains of Lactobacillus spp., 13 strains of Mobiluncus spp., 6 strains of Chlamydia trachomatis, 60 strains of Neisseria gonorrhoeae and 25 strains of Haemophilus ducreyi were obtained by culture collections supplied from:
as §3

[10] = system: Chlamydia trachomatis; test: MIC in vitro, Chlamydia trachomatis (Hoban et al. method); assay type: cell-based
From the text: as §4, §5, §3

Row | SMILES | MIC50 ([1]; 13 strains) | MIC90 ([1]; 13 strains, read-out: MIC 90%) | MIC ([1]; 13 strains) | MIC50 [3] | MIC90 [3] | MIC [3] | MIC50 ([4]; 23 strains) | MIC90 ([4]; 23 strains, read-out: MIC 90%) | MIC ([4]; 23 strains) | MIC50 ([5]; 31 strains) | MIC90 ([5]; 31 strains, read-out: MIC 90%) | MIC ([5]; 31 strains) | MIC90 [4] | MIC90 [5] | also measured
1 | CCC[C@@H]1C[C@@H](C(=O)N[C@@H]([C@H]2O[C@H](SC)[C@H](O)[C@@H](O)[C@H]2O)[C@H](C)Cl)N(C)C1 [Clindamycin] | ≤ 0.06 mg/L | < 0.06 mg/L | ≤ 0.06 mg/L | ≤ 0.06 mg/L | < 0.06 mg/L | ≤ 0.06 mg/L | ≤ 0.06 mg/L | < 0.06 mg/L | 0.06 to 0.25 mg/L (≈ 0.141 to 0.588 µM) | 0.25 mg/L (≈ 0.588 µM) | 4 mg/L (≈ 9.41 µM) | 0.06 to 4 mg/L (≈ 0.141 to 9.41 µM) |  |  | side effects ([2]; compared with drugs currently used): serious side effects, particularly on the gastrointestinal tract with serious forms of diarrhea and pseudo-membranous colitis that can even lead to the death of the patient
2 | CC1(C)S[C@@H]2[C@H](NC(=O)[C@H](N)c3ccccc3)C(=O)N2[C@H]1C(=O)O [Ampicillin] | ≤ 0.5 mg/L | 4 mg/L (≈ 11.4 µM) | 0.5 to 4 mg/L (≈ 1.43 to 11.4 µM) | 4 mg/L (≈ 11.4 µM) | 64 mg/L (≈ 183 µM) |  | ≤ 0.5 mg/L |  | 0.5 to 2 mg/L (≈ 1.43 to 5.72 µM) | ≤ 0.5 mg/L | 1 mg/L (≈ 2.86 µM) | 0.5 to 2 mg/L (≈ 1.43 to 5.72 µM) | < 0.5 mg/L |  | 
3 | Cc1ncc([N+](=O)[O-])n1CCO [Metronidazole] | > 16 mg/L |  |  | 2 mg/L (≈ 11.7 µM) | 4 mg/L (≈ 23.4 µM) | 0.5 to 8 mg/L (≈ 2.92 to 46.7 µM) | > 16 mg/L |  |  | > 16 mg/L |  | > 16 mg/L | > 16 mg/L | > 16 mg/L | MIC90 [1]: > 16 mg/L; side effects ([2]; in vivo): serious side effects particularly on the blood and on the central nervous system
4 | CO[C@H]1/C=C/O[C@@]2(C)Oc3c(C)c(O)c4c(O)c(c5c(nc6cc(C)ccn65)c4c3C2=O)NC(=O)/C(C)=C\C=C\[C@H](C)[C@H](O)[C@@H](C)[C@@H](O)[C@@H](C)[C@H](OC(C)=O)[C@@H]1C [Rifaximin, 4-desoxy-4'-methyl-pyrido [1'2':1.2] imidazo [5.4-c] rifamycin SV] | ≤ 0.03 mg/L | < 0.03 mg/L | ≤ 0.03 mg/L | 0.12 mg/L (≈ 0.153 µM) | 0.25 mg/L (≈ 0.318 µM) | 0.03 to 0.5 mg/L (≈ 0.0382 to 0.636 µM) | 0.5 mg/L (≈ 0.636 µM) | 1 mg/L (≈ 1.27 µM) | 0.25 to 1 mg/L (≈ 0.318 to 1.27 µM) | 0.12 mg/L (≈ 0.153 µM) |  | 0.3 to 1 mg/L (≈ 0.382 to 1.27 µM) |  | 0.5 mg/L (≈ 0.636 µM) | MIC50 ([6]; 20 strains): 64 mg/L (≈ 81.4 µM); MIC90 ([6]; 20 strains): ≥ 64 mg/L; MIC ([6]; 20 strains, read-out: MIC Range of Concentration Value): ≥ 64 mg/L; MIC ([6]; read-out: M.I.C.): ≥ 64 mg/L; MIC90 [7]: 0.5 mg/L (≈ 0.636 µM); MIC50 ([7]; 25 strains): 0.25 mg/L (≈ 0.318 µM); MIC ([7]; 25 strains, read-out: MIC Range of Concentration Value): 0.03 to 0.5 mg/L (≈ 0.0382 to 0.636 µM); MIC [8]: ≥ 64 mg/L; MIC50 ([8]; 25 strains): 64 mg/L (≈ 81.4 µM); MIC90 ([8]; 25 strains): > 64 mg/L; MIC90 [9]: 16 mg/L (≈ 20.4 µM); MIC50 ([9]; 60 strains): 0.25 mg/L (≈ 0.318 µM); susceptibility [10]: has shown susceptibility to rifaximin; MIC90 ([10]; Chlamydia trachomatis, 6 strains): < 20 mg/L; MIC ([10]; Chlamydia trachomatis, 6 strains, read-out: MIC Range of Concentration Value): 10 to 20 mg/L (≈ 12.7 to 25.4 µM); MIC ([10]; Chlamydia trachomatis, read-out: M.I.C.): > 20 mg/L
